US20140017721A1 (The Research Foundation of State University of New York, priority 2012, published 2014)

Test system: prostate cancer cells (parental PPT2, primary tumor-derived)
Assay: Cytotoxic drug treatment of parental primary prostate cancer cells under stemness-promoting culture
Format: cell-based, human
Conditions: 0.1-3 μM concentrations; FIG. 1C
Text: Initially, the isolated fast adherent cells represented a mixture of a majority of tumor-associated fibrocytes with a minor population of large cancer cells (FIG. 1A).

## CC(=O)O[C@H]1C(=O)[C@@]2(C)[C@H]([C@H](OC(=O)c3ccccc3)[C@]3(O)C[C@H](OC(=O)[C@H](O)[C@@H](NC(=O)c4ccccc4)c4ccccc4)C(C)=C1C3(C)C)[C@]1(OC(C)=O)CO[C@@H]1C[C@@H]2O [Taxol]
  enrichment of multinucleated gigantic cells (highly drug resistant type of CSCs): significant enrichment and visualization of the multinucleated gigantic cells

## CC(=O)O[C@@]12CO[C@@H]1C[C@H](O)[C@@]1(C)C(=O)[C@H](OC(=O)C3CC3)C3=C(C)[C@@H](OC(=O)[C@H](O)[C@H](C=C(C)C)NC(=O)OC(C)(C)C)C[C@@](O)([C@@H](OC(=O)c4ccccc4)[C@H]21)C3(C)C [SBT-1214]
  enrichment of multinucleated gigantic cells (highly drug resistant type of CSCs): significant enrichment and visualization of the multinucleated gigantic cells
